In patent US5665745A, “Heterocyclic compounds and their preparation and use” (Eli Lilly and Company, priority 1995, dated 1997):
Where two headings read alike, the source gives them in different places.

Tests used:
[1] = target: T1, muscarinic receptors (M1 -site, pirenzepine sensitive site) (Rattus norvegicus, UniProt P08482); assay: inhibition of ^3 HPRZ (pirenzepine, [N-methyl-^3 H]) binding to rat cerebral cortex membranes; design: species or system rat (male Wistar
T1 construct: from tissue; host or cells: cerebral cortex membranes of male Wistar rats
T1 sequence (P08482 1-460): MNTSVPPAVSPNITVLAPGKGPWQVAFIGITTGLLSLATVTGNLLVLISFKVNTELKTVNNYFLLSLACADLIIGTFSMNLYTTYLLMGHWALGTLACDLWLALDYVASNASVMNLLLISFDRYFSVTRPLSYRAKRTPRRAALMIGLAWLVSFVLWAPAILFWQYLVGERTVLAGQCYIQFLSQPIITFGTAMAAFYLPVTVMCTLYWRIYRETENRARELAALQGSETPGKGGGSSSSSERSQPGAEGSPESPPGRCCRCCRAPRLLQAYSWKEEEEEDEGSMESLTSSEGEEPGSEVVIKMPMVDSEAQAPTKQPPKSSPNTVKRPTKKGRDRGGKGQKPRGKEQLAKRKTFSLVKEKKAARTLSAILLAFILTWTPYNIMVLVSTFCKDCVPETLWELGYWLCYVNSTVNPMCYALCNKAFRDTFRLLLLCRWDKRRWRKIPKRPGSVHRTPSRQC
Protocol: Furthermore the pharmacological properties of the compounds of the invention can also be illustrated by determining their capability to inhibit ^3 HPRZ (pirenzepine, [N-methyl-^3 H]) binding to rat cerebral cortex membranes.
Pirenzepine binds selectively to subtype of muscarinic receptors. Historically the type is named the M1 -site, whereas pirenzepine sensitive site would be more appropriate.
(§1) All preparations are performed at 0°-4° C. unless otherwise indicated. Fresh cortex (0.1-19) from male Wistar rats (150-200 g) is homogenized for 5-10 s in 10 mL 20 mM Hepes pH: 7.4, with an Ultra-Turrax homogenizer. The homogenizer is rinsed with 2×10 mL of buffer and the combined suspension centrifuged for 15 min. at 40,000×g. The pellet is washed three times with buffer. In each step the pellet is homogenized as before in 3×10 mL of buffer and centrifuged for 10 min. at 40,000×g.
The final pellet is homogenized in 20 mM Hepes pH: 7.4 (100 mL per g of original tissue) and used for binding assay. Aliquots of 0.5 mL is added 20 μl of test solution and 25 μL of ^3 HPRZ (1.0 nM, final conc.), mixed and incubated for 60 min. at 20° C. Non-specific binding is determined in triplicate using atropine (1 ,μg/mL, final conc.) as the test substance. After incubation samples are added 5 mL of ice-cold buffer and poured directly onto Whatman GF/C glass fiber filters under suction and immediately washed 2 times with 5 mL of ice-cold buffer. The amount of radioactivity on the filters are determined by conventional liquid scintillation counting. Specific binding is total binding minus non-specific binding.
Test substances are dissolved in 10 mL water, at a concentration of 0.22 mg/mL.
(§2) The test value will be given as IC50 (the concentration (nM) of the test substance which inhibits the specific binding of ^3 HPRZ by 50%). IC50 =(applied test substance concentration) x(Cx /Co -Cx)nM where Co is specific binding in control assays and Cx is the specific binding in the test assay. (The calculations assume normal mass-action kinetics).

[2] = target: muscarinic acetylcholine receptors; assay: inhibition of specific binding of ^3 H-Oxotremorine-M (^3 H-Oxo); design: species or system rat (male Wistar; conditions: ^3 H-Oxotremorine 1.0 nM, rat cortex, 30 min. at 25° C.
Source text: The pharmacological properties of the compounds of the invention can be illustrated by determining their capability to inhibit the specific binding of ^3 H-Oxotremorine-M (^3 H-Oxo). Birdsdall N. J. M., Hulme E. C., and Burgen A. S. V. (1980). "The Character of Muscarinic Receptors in Different Regions of the Rat Brain" Proc. Roy. Soc. London (Series B) 207,1.
^3 H-Oxo labels muscarinic receptor in the CNS (with a preference for agonist domains of the receptors). Three different sites are labeled by ^3 H-Oxo. […] Using the present experimental conditions only the high and medium affinity sites are determined.
The inhibitory effects of compounds on ^3 H-oxo binding reflects the affinity for muscarinic acetylcholine receptors.
as §1, with “cortex (0.1-1 g)” for “cortex (0.1-19)”, “rats (150-250” for “rats (150-200”, “5-10 seconds” for “5-10 s”, “[…]” for “20 mM”, “with 10” for “with 2×10”, “in 2×10” for “in 3×10”
The final pellet is homogenized in 20 mM Hepes pH: 7.4 (100 mL per g of original tissue) and used for binding assay. Aliquots of 0.5 mL is added 25 μL of test solution and 25 μL of ^3 H-Oxotremorine (1.0 nM, final concentration) mixed and incubated for 30 min. at 25° C. Non-specific binding is determined in triplicate using arecoline ([…], final concentration) as the test substance. After incubation samples are added 5 mL of ice-cold buffer and poured directly onto Whatman GF/C glass fiber filters under suction and immediately washed 2 times with 5 mL of ice-cold buffer. The amount of radioactivity on the filters are determined by conventional liquid scintillation counting. Specific binding is total binding minus non specific binding.
as §2, with “Test substances are dissolved in 10 mL water (if necessary heated on a steam-bath for less than 5 min.) at a concentration of 2.2 mg/mL. […] The test” for “The test”, “of ^3 H-oxo by 50%).” for “of ^3 HPRZ by 50%).”

[3] = ^3 HPRZ 1.0 nM, rat cortex, 60 min. at 20° C., read-out: ^3 HPRZ IC50 (head from b208 on: Pir IC-50)

| Compound | IC50 [1] [nM] | IC50 [2] [nM] | IC50 [1, 3] [nM] |
| --- | --- | --- | --- |
| C/C=C/COc1nsnc1OC1CN2CCC1CC2 (mixture of isomers) [Compound 109, (±)-3-(trans-2-butenyloxy)-4-(1-azabicyclo[2.2.2]octyl-3-oxy)-1,2,5-thiadiazole] | 58.3 | 12.3 |  |
| C/C=C\COc1nsnc1OC1CN2CCC1CC2 (mixture of isomers) [Compound 110, (±)-3-(cis-2-butenyloxy)-4-(1-azabicyclo[2.2.2]octyl-3-oxy)-1,2,5-thiadiazole] | 50.4 | 13.2 |  |
| Cl/C=C/COc1nsnc1OC1CN2CCC1CC2 (mixture of isomers) [Compound 120, (±)-3-(trans-3-chloro-2-propenyloxy)-4-(1-azabicyclo[2.2.2]octyl-3-oxy)-1,2,5-thiadiazole] | 71 | 11 |  |
| CCCCSc1nsnc1OC1CCCN2CCCC12 (mixture of isomers) [Compound 142, (±)-cis-3-Butylthio-4-(1-azabicyclo[4.3.0]nonyl-5-oxy)-1,2,5-thiadiazole] |  | 38 | 74 |
| FC(F)(F)CCCOc1nsnc1OC1CC2CCC1NC2 (mixture of isomers) [Compound 160, (±)-exo-3-(4,4,4-Trifluorobutyloxy)-4-(2-azabicyclo[2.2.2]octyl-6-oxy)-1,2,5-thiadiazole] |  | 14 | 6.3 |
| CCCCCCOc1nsnc1OC1CC2CCC1NC2 (mixture of isomers) [Compound 161, (±)-exo-3-(Hexyloxy)-4-(2-azabicyclo[2.2.2]octyl-6-oxy)-1,2,5-thiadiazole] |  | 6.8 | 5.3 |
| FC(F)(F)CCCOc1nsnc1OC1CC2CCC1NC2 (mixture of isomers) [Compound 162, (±)-endo-3-(4,4,4-Trifluorobutyloxy)-4-(2-azabicyclo[2.2.2]octyl-6-oxy)-1,2,5-thiadiazole] |  | 179 | 128 |
| Fc1ccc(OCCSc2nsnc2OC2CC3CCC2NC3)cc1 (mixture of isomers) [Compound 164, (±)-exo-3-(2-[Fluorophenoxy]ethylthio)-4-(2-azabicyclo[2.2.2]octyl-6-oxy)-1,2,5-thiadiazole] |  | 5.28 | 16.6 |
| C1=CC(Oc2nsnc2OC2CN3CCCC2C3)CCC1 (mixture of isomers) [Compound 174, (±)-endo-3-(2-Cyclohexenyloxy)-4-(1-azabicyclo[3.2.1]octyl-6-oxy)-1,2,5-thiadiazole] |  | 2.1 | 12 |
| CC(Oc1nsnc1OC1CN2CCCC1C2)C1CC1 (mixture of isomers) [Compound 199, (±)-endo-3-(1-cyclopropylethoxy)-4-(1-azabicyclo[3.2.1]octyl-6-oxy)-1,2,5-thiadiazole] |  | 3.3 | 5.4 |
| C#CC(C)Oc1nsnc1OC1CN2CCCC1C2 (mixture of isomers) [Compound 203, (±)-endo-3-(3-Butyn-2-oxy)-4-(1-azabicyclo[3.2.1]octyl-6-oxy)-1,2,5-thiadiazole] |  | 3.1 | 4.3 |
| COc1nsnc1OC1CN2CCC1CC2 (racemic) [Compound 5, (±)-3-Methoxy-4-(1-azabicyclo[2.2.2]octyl-3-oxy)-1,2,5-thiadiazole] |  | 162 | 183 |
| CCOc1nsnc1OC1CN2CCC1CC2 (racemic) [Compound 6, (±)-3-Ethoxy-4-(1-azabicyclo[2.2.2]octyl-3-oxy)-1,2,5-thiadiazole] | 32 | 17 |  |
| CCCOc1nsnc1OC1CN2CCC1CC2 (racemic) [Compound 7, (±)-3-propyloxy-4-(1-azabicyclo[2.2.2]octyl-3-oxy)-1,2,5-thiadiazole] | 26 | 10.7 |  |
| CCCCOc1nsnc1OC1CN2CCC1CC2 (racemic) [Compound 8, (±)-3-Butyloxy-4-(1-azabicyclo[2.2.2]octyl-3-oxy)-1,2,5-thiadiazole] | 7.4 | 3.1 |  |
| CCCCCOc1nsnc1OC1CN2CCC1CC2 (racemic) [Compound 9, (±)-3-Pentyloxy-4-(1-azabicyclo[2.2.2]octyl-3-oxy)-1,2,5-thiadiazole] | 25 | 11 |  |
| CCCCCCOc1nsnc1OC1CN2CCC1CC2 (racemic) [Compound 10, (±)-3-Hexyloxy-4-(1-azabicyclo[2.2,2]octyl-3-oxy)-1,2,5-thiadiazole] | 22 | 6.1 |  |
| CC(C)CCCOc1nsnc1OC1CN2CCC1CC2 (racemic) [Compound 11, (±)-3-(4-Methylpentyloxy)-4-(1-azabicyclo[2.2.2]octyl-3-oxy)-1,2,5-thiadiazole] | 33 | 29 |  |
| Clc1nsnc1OC1CN2CCC1CC2 (racemic) [Compound 12, (±)-3-Chloro-4-(1-azabicyclo[2.2.2]octyl-3-oxy)-1,2,5-thiadiazole] | 86 | 73 |  |
| CCCSc1nsnc1OC1CN2CCC1CC2 (racemic) [Compound 13, (±)-3-Propylthio-4-(1-azabicyclo[2.2.2]octyl-3-oxy)-1,2,5-thiadiazole] | 3.7 | 1.4 |  |
| CCCCSc1nsnc1OC1CN2CCC1CC2 (racemic) [Compound 14, (±)-3-Butylthio-4-(1-azabicyclo[2.2.2]octyl-3-oxy)-1,2,5-thiadiazole] | 1.9 | 1.3 |  |
| CCCCCSc1nsnc1OC1CN2CCC1CC2 (racemic) [Compound 15, (±)-3-Pentylthio-4-(1-azabicyclo[2.2.2]octyl-3-oxy)-1,2,5-thiadiazole] | 2.3 | 1.6 |  |
| CCCCCCSc1nsnc1OC1CN2CCC1CC2 (racemic) [Compound 17, (±)-3-Hexylthio-4-(1-azabicyclo[2.2.2]octyl-3-oxy)-1,2,5-thiadiazole] | 8.8 | 5.2 |  |
| CC(C)(C)CCSc1nsnc1OC1CN2CCC1CC2 (racemic) [Compound 18, (±)-3-(3,3-Dimethylbutylthio)-4-(1-azabicyclo[2.2.2]-octyl-3-oxy)-1,2,5-thiadiazole] | 73 | 101 |  |
